According to US10105380B2, “Glycoclusters and their pharmaceutical use as antibacterials” (priority 2013, dated 2018):
Values after ≈ are worked out from the molar mass of the structure shown.

target: T1, PA-IL (Pseudomonas aeruginosa, UniProt Q05097); experiment: Kd determination on DDI microarray (Langmuir isotherm, Scatchard plot); assay type: binding; conditions: DNA-tagged galactoclusters G1-G24 on glycoarray
Description: The methodologies for Kd and IC50 value determination have been previously reported (Gerland, B. et al., (2012) Bioconjugate Chem. 23, 1534-1547; Zhang, J. et al., (2009) Chem. Comm., 6795-6797; Zhang, J. et al., (2009) Biosens. Bioelectron. 24, 2515-2521).
CaCl2 (1 μg/mL final concentration) was added. PA-IL at the desired final concentration was then added. 2 μL of each solution (corresponding to the desired PA-IL concentration) were poured in the corresponding microwells. The slide was incubated (3 h, 37° C.) in a water vapor saturated chamber and finally washed in PBS-Tween 20 (0.02%, 5 min, 4° C.) and dried. A Microarray scanner, GenePix 4100A software package (Axon Instruments; λex 532/635 nm and λem 575/670 nm) was used for fluorescent imaging of both fluorophore (Cy3 and Alexa 647). The average of the mean fluorescence signal was calculated from eight spots. The resulting Langmuir Isotherms were linearised using Scatchard plot to give the Kd values at the ordonnate intercept.

T1 sequence (Q05097 2-122): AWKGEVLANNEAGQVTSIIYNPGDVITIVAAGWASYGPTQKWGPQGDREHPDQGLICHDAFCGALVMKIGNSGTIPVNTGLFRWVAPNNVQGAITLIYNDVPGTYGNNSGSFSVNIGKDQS

Compound	Kd
Man(EG3MTzproNCOBisphe-OGal)4 [G19]	0.046 µM
Man(EG3MTzAcNPhe-CH2-Gal)4 [G7]	0.085 µM
Man(EG3MTzproNCONapht-OGal)4 [G23]	0.048 µM
Man(PSEG2MTzproNCONapht-OGal)4 [G22]	0.02 µM

same assay, conditions: text b577, microarray, Langmuir isotherm

Compound	Kd
Man(POProTzAcNPhe-O-Gal)4 [17d]	0.196 µM
Man(POEG2MTzAcNPhe-O-Gal)4 [compound 32]	0.083 µM

target: T1, PA-IL; experiment: Enzyme Linked Lectin Assay (ELLA), PAA-galactose coated plates; assay type: binding; conditions: not given
Description: (§1) The binding of PA-IL to galactoclusters was probed as the ability of the clusters to inhibit the binding of PA-IL to rabbit erythrocytes (Hemagglutination inhibition assay, HIA) or to surface bound galactosyl modified polyacrylamide either by Surface Plasmon Resonance (SPR), Enzyme Linked Assay (ELLA) Inhibition was measured with competitive assays. In HIA experiments, the minimal inhibitory concentration (MIC) is the minimal concentration of galactocluster that inhibit the hemagglutination of rabbit erythrocytes in presence of the lectin. The lower the MIC the highest is the binding of the galactocluster to the lectin. SPR and ELLA were used to determine the IC50 value. […] The lower the IC50 value as determined by SPR (^SPRIC50) and ELLA (^ELLAIC50), the higher is the binding of PA-IL to the galactocluster.
96-Well microtiter plates (NuncMaxisorb) were coated with α-PAA-Gal(PAA=polyacrylamide) for PA-IL (Lectinity Holding, Inc.): 100 μL of 5 μg·mL^−1 in carbonate buffer, pH 9.6 for 1 h at 37° C., then blocking at 37° C. for 1 h with 100 μL per well of 3% (w/v) bovine serum albumin (BSA) in phosphate buffer solution (PBS). Lectin solutions (75 μL) were diluted (1:2) starting from 30 μg·mL^−1. After 1 h incubation at 37° C. and three washes with T-PBS (PBS that contained 0.05% Tween 20), horseradish peroxidase (HRP)-streptavidin conjugate (100 μL; dilution 2:8000; Boehringer-Mannheim) was added and left for 1 h at 37° C. Coloration was developed by using 100 μL per well of 0.05% phosphate/citrate buffer that contained o-phenylenediaminedihydrochloride ([…]) and urea hydrogen peroxide (0.4 mg·mL^−1) (OPD kit, Sigma-Aldrich) for 15 min and stopped with sulfuric acid (50 μL, 30%). Absorbance was then read at 490 nm using a microtiter plate reader (BioRad 680). The concentration of biotinylatedlectins was determined by plotting the relative absorbance versus lectin concentration. The concentration that led to the highest response in the linear area was selected as the standard lectin concentration for the subsequent inhibition experiments.
Microtiter plates were modified with PAA-galactose. Slides were incubated with increasing concentration of galactosylated ligands. […] The lowest the IC50 as determined the strongest is the binding of the studied molecule to PA-IL. ELLA: This IC50 will be referred here after ^ELLAIC50. SPR: This IC50 will be referred here after ^SPRIC50.

Compound	IC50
O=[N+]([O-])c1ccc(O[C@@H]2O[C@H](CO)[C@H](O)[C@H](O)[C@H]2O)cc1 [Gal-ArNO2, 1-O-p-nitrophenyl-β-D-galactoside]	33 µM

same assay, conditions: IC50 of Gal-ArNO2 over IC50 of the molecule

Compound	ELLA βAr
O=[N+]([O-])c1ccc(O[C@@H]2O[C@H](CO)[C@H](O)[C@H](O)[C@H]2O)cc1 [Gal-ArNO2, 1-O-p-nitrophenyl-β-D-galactoside]	1.0

same assay, conditions: IC50 of Gal-OMe over IC50 of the molecule

Compound	ELLA βMe
O=[N+]([O-])c1ccc(O[C@@H]2O[C@H](CO)[C@H](O)[C@H](O)[C@H]2O)cc1 [Gal-ArNO2, 1-O-p-nitrophenyl-β-D-galactoside]	5.5

target: T1, PA-IL; experiment: DDI glycoarray, direct fluorescence scanning with Alexa647-PA-IL; assay type: binding; conditions: result in words

Compound	binding to PA-IL on microarray
Man(POProTzAcNPhe-O-Gal)4 [17d]	high binding

target: T1, PA-IL; experiment: not given; assay type: binding; conditions: DNA-tagged galactoclusters G1-G24 on glycoarray; read-out: IC50
Description: IC50 Determination with “on Chip” Biological Recognition
Lectin PA-IL (0.12 μM final concentration), BSA (2% final concentration) and CaCl2 (1 μg/mL final concentration) was diluted in PBS1× (pH=7.4). In each micro tube was added the inhibitor lactose at the desired final concentration (0; 1.10^−5; 1.10^−4; 5.10^−4; 1.10^−3; 5.10^−3; 1.10^−2; 5.10^−2; 0.1; 1; 5; 10; 50; 10^2; 5.10^2; 10^3; 5.10^3; 10^4; 10^5; 3.10^5).
2 μL of each solution were deposited in the corresponding microwells and the slide was incubated at 37° C. in a water vapor saturated chamber for 3 h. The washing steps are: PBS-Tween0.2% 5 min at 4° C., then briefly in deionized water and dried by centrifugation.
Slide was scanned at 532 nm then at 635 nm with the Microarray scanner, GenePix 4100A software package (Axon Instruments; λex 532/635 nm and λem 575/670 nm). The fluorescence signal of each conjugate was determined as the average of the mean fluorescence signal of sixty-four spots.
IC50 values were determined using “BioDataFit 1.02 program”. The model chosen was “Sigmoidal”: Y=a+(b−a)/[1+10^(x−c)]
with a=FImin, b=FImax, x=[…] and c=log(IC50). FImin/max is the minimum/maximum Alexa-647 fluorescence signal observed for a galactomimetic.
So the IC50 value was called IC50Lac.

Compound	IC50
Man(EG3MTzproNCOBisphe-OGal)4 [G19]	68900 µM
Man(EG3MTzAcNPhe-CH2-Gal)4 [G7]	9100 µM
Man(EG3MTzproNCONapht-OGal)4 [G23]	68000 µM

same assay, conditions: Table 6, DNA-galactomimetics, lactose as inhibitor; read-out: microarray IC50Lac

Compound	IC50
Man(POEG2MTzAcNPhe-O-Gal)4 [compound 32]	4220 µM

same assay, conditions: Table 6, relative potency vs monovalent ligand 31

Compound	β
Man(POProTzAcNPhe-O-Gal)4 [17d]	177
Man(POEG2MTzAcNPhe-O-Gal)4 [compound 32]	264

same assay, conditions: lactose concentration required to displace 50% of PA-IL from the glycocluster; higher = better binding; read-out: IC50Lac

Compound	IC50
Man(POEG2MTzAcNPhe-O-Gal)4 [compound 32]	4220 µM

same assay, conditions: ratio of IC50Lac to mono EG3-O-galactose (entry 1)

Compound	Potency vs EG3-O-Gal
Man(POProTzAcNPhe-O-Gal)4 [17d]	565
Man(POEG2MTzAcNPhe-O-Gal)4 [compound 32]	844

same assay, conditions: ratio of IC50Lac to mono-aromatic galactose 31 (entry 2)

Compound	Potency vs AcNPhe-O-Gal
Man(POProTzAcNPhe-O-Gal)4 [17d]	177
Man(POEG2MTzAcNPhe-O-Gal)4 [compound 32]	264

target: T1, PA-IL; experiment: Surface Plasmon Resonance (SPR) inhibition; assay type: binding; conditions: not given
Description: as §1
SPR inhibition experiments were performed using a Biacore 3000 instrument at 25° C. Measurements were carried out on two channels with two immobilized sugars: α-L-fucose (channel 1) and α-D-galactose (channel 2). Immobilization of sugars was performed at 25° C. using running buffer (HBS) at […]. Immobilization on each channel (CM5 Chip) was performed independently as follows. First, the channel was activated by injecting a fresh mixture of EDC/NHS (35 μL, 420 s). Then a solution of streptavidin ([…] in 0.1 mM AcONa pH 5 buffer) was injected (50 μL, 600 s). The remaining reactive species were quenched by injecting ethanolamine (1M, 35 μL, 420 s) into the solution. Finally, a solution of the desired biotinylated-polyacrylamide-sugar (lectinity, […]) was coated onto the surface (50 μL, 600 s) through streptavidin-biotin interaction. […] Inhibition studies consisted of the injection (150 μL, 10 μL·min^−1, dissociation 120 s) of incubated (>1 h, RT) mixtures of PAIL ([…]) and various concentrations of inhibitor (twofold cascade dilutions). […] The CM5 chip was fully regenerated by successive injections of d-galactose (2×30 μL, 100 mm in running buffer). Binding was measured as RU over time after blank subtraction, and data were then evaluated using the BIAevaluation Software version 4.1. For IC50 evaluation, the response (Req-fitted) was considered to be the amount of lectin bound to the carbohydrate-coated surface at equilibrium in the presence of a defined concentration of inhibitor. Inhibition curves were obtained by plotting the percentage of inhibition against the inhibitor concentration (on a logarithmic scale) by using Origin 7.0 software (OriginLab Corp.), and IC50 values were extracted from sigmoidal fit of the inhibition curve.
Microtiter plates were modified with PAA-galactose. […] The lowest the IC50 as determined the strongest is the binding of the studied molecule to PA-IL. […]

Compound	IC50
O=[N+]([O-])c1ccc(O[C@@H]2O[C@H](CO)[C@H](O)[C@H](O)[C@H]2O)cc1 [Gal-ArNO2, 1-O-p-nitrophenyl-β-D-galactoside]	6.7 µM

same assay, conditions: IC50 of Gal-ArNO2 over IC50 of the molecule

Compound	SPR βAr
O=[N+]([O-])c1ccc(O[C@@H]2O[C@H](CO)[C@H](O)[C@H](O)[C@H]2O)cc1 [Gal-ArNO2, 1-O-p-nitrophenyl-β-D-galactoside]	1.0

same assay, conditions: IC50 of Gal-OMe over IC50 of the molecule

Compound	SPR βMe
O=[N+]([O-])c1ccc(O[C@@H]2O[C@H](CO)[C@H](O)[C@H](O)[C@H]2O)cc1 [Gal-ArNO2, 1-O-p-nitrophenyl-β-D-galactoside]	7.3

target: T1, PA-IL; experiment: Hemagglutination inhibition assay (HIA), rabbit erythrocytes; assay type: cell-based; conditions: minimal inhibitory concentration of hemagglutination; PA-IL 3 μM
Description: as §1
Hemagglutination inhibition assays (HIA) were performed in U-shaped 96-well microtitre plates. Rabbit erythrocytes were purchased from Biomérieux and used without further washing. Erythrocytes were diluted to a 8% solution in NaCl (100 mM). PA-IL solutions of 3 μM were prepared in TRIS-HCl 20 mM (TRIS=tris(hydroxymethyl)aminomethane), NaCl 100 mM, and CaCl2 100 mM. The hemagglutination unit (HU) was first obtained by addition of the 4% erythrocyte solution (50 μL) to aliquots (50 μL) of sequential (twice) lectin dilutions. The mixture was incubated at 25° C. for 30 min. The HU was measured as the minimum lectin concentration required to observe hemagglutination. For the following lectin-inhibition assays, lectin concentrations of 4 HU were used. […] Subsequent inhibition assays were then carried out by the addition of lectin solution (25 μL, at the required concentration) to sequential dilutions (50 μL) of glycoclusters, monomer molecules, and controls. These solutions were incubated at 37° C. for 30 min, then 8% erythrocyte solution (25 μL) was added, followed by an additional incubation at 37° C. for 1 h. The minimum inhibitory concentration for each molecule was determined for each duplicate.

Compound	MIC
O=[N+]([O-])c1ccc(O[C@@H]2O[C@H](CO)[C@H](O)[C@H](O)[C@H]2O)cc1 [Gal-ArNO2, 1-O-p-nitrophenyl-β-D-galactoside]	2000 µM (≈ 603 µg/mL)

same assay, conditions: ratio of MIC of Gal-OArNO2 over MIC of the molecule

Compound	βAr
O=[N+]([O-])c1ccc(O[C@@H]2O[C@H](CO)[C@H](O)[C@H](O)[C@H]2O)cc1 [Gal-ArNO2, 1-O-p-nitrophenyl-β-D-galactoside]	1.0

same assay, conditions: ratio of MIC of Gal-OMe over MIC of the molecule

Compound	βMe
O=[N+]([O-])c1ccc(O[C@@H]2O[C@H](CO)[C@H](O)[C@H](O)[C@H]2O)cc1 [Gal-ArNO2, 1-O-p-nitrophenyl-β-D-galactoside]	8.0
